Patent US12274678B2, “Cannabinoids and uses thereof” (TECHNION RESEARCH & DEVELOPMENT FOUNDATION LIMITED, priority 2019, dated 2025)
Where a SMILES comes first, the peptide text is derived from it. [ ]: non-standard residue; d: D form. The star is where a group is joined. Nle = CCCC[C@H](N)C(=O)O; Cbz = O=C(OCc1ccccc1)*

Columns and labels:
Type in all cases: cell-based, human
[1] = tested on: MOLT-4 cells; assay: AlamarBlue cell viability assay, MOLT-4; conditions: CBD, CBDV, CF1 separately and in combinations, 24 h
Experimental: (§1) Cells were cultured in 96-well plates. At 100,000 cells/well the media was replaced with RPMI containing 0.5% FBS and different Cannabis extracts. Extracts were added in triplicate at a concentration of 1-5 μg/mL. DMSO was used as the control and applied in the same amount as in the diluted extracts. An alamarBlue® reagent was used to quantitate viability (according to the manufacturer's Instructions). Viability was measured following 24 h of incubation using fluorescence spectrophotometry at excitation and emission wavelengths of 560 and 590 nm, respectively. Viability was calculated as percent reduction between treated and control cells.

[2] = tested on: CCRF-CEM cells; assay: AlamarBlue cell viability assay, CCRF-CEM; conditions: CBD, CBDV, CF1 separately and in combinations, 24 h
Experimental: as §1

[3] = tested on: NICD; assay: Immunoblotting of NICD protein in cells; conditions: MOLT-4 cells, 3 μg/mL, 24 h
Experimental: (§2) Cell Lysis and Western Blot Analyses
Following treatment, cells were solubilized in radioimmunoprecipitation assay buffer (RIPA) (Sigma-Aldrich, R0278) and the protein concentration in lysates were determined using a Bradford reagent (Sigma-Aldrich, B6916). Equal amounts of protein were resolved by Novex™ 4-20% Tris-Glycine Mini Gels (Thermo Fisher Scientific, XP04200BOX) and electrophoretically transferred to a nitrocellulose membrane (Bio-Rad, 1704159S). Membranes were blocked with TBS 0.1% Tween 20 buffer containing 5% bovine serum albumin (Sigma, A7906) for 1 h. The blots were then incubated overnight at 4° C. with Full Notch1 (Millipure ABS90), from Cell Signaling Technology Notch1 V1744 (4147S), c-Myc (13987), Hes1 (11988), anti-cleaved caspase-3 antibody (9664), Phospho-C-Jun (3270), C-Jun (9165), and β-tubulin (clone D3U1W, 86298) and Chac1 (ab76386) from abcam. This was followed by incubation with horseradish peroxidase-labeled matching secondary antibodies. Immunoreactive bands were detected by Luminata™ HRP substrate (Millipore, WBLUR0500) and visualized using a MicroChemi imager (DNR Bioimaging Systems).

[4] = tested on: NICD; assay: Western blot of NICD in Molt-4 cells pretreated with proteasome inhibitors, then Extract 12; conditions: MOLT-4 cells pretreated 1 h (MG132 2.5-7.5 μM; MG101 10 μM), then Extract 12 5 μg/mL 3 h
Experimental: FIG. 14 is a micrograph of a western blot analysis of NICD in Molt-4 cells pretreated with MG132 (proteasome inhibitor; 0, 2.5 μM, 5 μM, 7.5 μM) for 1 h and then treated with vehicle or Extract 12 (5 μg/mL) for 3 h. β-tubulin served as a loading control.
FIG. 15 is a micrograph of western blot analysis of NICD in Molt-4 cells pretreated with MG101 (proteasome inhibitor; 0, 10 μM) for 1 h and then treated with vehicle or Extract 12 (5 μg/mL) for 3 h. β-tubulin served as a loading control.
as §2
Following treatment, cells were solubilized in radioimmunoprecipitation assay buffer (RIPA) (Sigma-Aldrich, R0278) and the protein concentration in lysates were determined using a Bradford reagent (Sigma-Aldrich, B6916). Equal amounts of protein were resolved by Novex™ 4-20% Tris-Glycine Mini Gels (Thermo Fisher Scientific, XP04200BOX) and electrophoretically transferred to a nitrocellulose membrane (Bio-Rad, 1704159S). Membranes were blocked with TBS 0.1% Tween 20 buffer containing 5% bovine serum albumin (Sigma, A7906) for 1 h. […] Immunoreactive bands were detected by Luminata™ HRP substrate (Millipore, WBLUR0500) and visualized using a MicroChemi imager (DNR Bioimaging Systems).

| SMILES | MOLT-4 cell death / cell apoptosis in viability assay of cannabinoids [1] | CCRF-CEM cell apoptosis in viability assay of cannabinoids [2] | NICD levels after cannabinoids [3] | restoration of NICD protein level by proteasome inhibition [4] |
| --- | --- | --- | --- | --- |
| C=C(C)[C@@H]1CCC(C)=C[C@H]1c1c(O)cc(CCCCC)cc1O [CBD, cannabidiol, reference compound] | produced cell apoptosis | produced cell apoptosis | decreasing NICD levels | – |
| C=C(C)[C@@H]1CCC(C)=C[C@H]1c1c(O)cc(CCC)cc1O [CBDV, cannabidivarin] | produced cell apoptosis | produced cell apoptosis | decreasing NICD levels | – |
| CCCCCc1cc(O)c(C2C=C(C)CCC2C(C)(C)O)c(O)c1 [CF1, 1,3-Benzenediol, 2-[(1R,6R)-6-(1-hydroxy-1-methylethyl)-3-methyl-2cyclohexen-1-yl]-5-pentyl] | produced cell apoptosis | produced cell apoptosis | decreasing NICD levels | – |
| CCCC[C@@H](C=O)NC(=O)[C@H](CC(C)C)NC(=O)[C@H](CC(C)C)NC(C)=O [MG101] (Ac-Leu-Leu-[Nle]-aldehyde) | – | – | – | did not restore |
| CC(C)C[C@@H](C=O)NC(=O)[C@H](CC(C)C)NC(=O)[C@H](CC(C)C)NC(=O)OCc1ccccc1 [MG132] (Cbz-Leu-Leu-Leu-aldehyde) | – | – | – | did not restore |
